Data reported in ChEMBL document CHEMBL1201862, “PubChem BioAssay data set” (2004).
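Results reflect a 48-hour exposure of cells in 96-well plates to compound at five concentrations. GI50 is the concentration that inhibits growth by half.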 Calls of active or inactive are those of the source. Cut-off read from the data, not from the text of the source: active = GI50 up to about 1.1 µM and inactive = higher.

Assays:
Assay in all cases: growth of human tumour cells (NCI), 48 h
MCF7 = tested on: MCF7
KM-20L2 = tested on: KM-20L2
SW-620 = tested on: SW-620
NCI-H23 = tested on: NCI-H23
A549 = tested on: A549
SK-MEL-5 = tested on: SK-MEL-5
RPMI-8226 = tested on: RPMI-8226
KM12 = tested on: KM12
SNB-19 = tested on: SNB-19
OVCAR-8 = tested on: OVCAR-8
EKVX = tested on: EKVX
SK-OV-3 = tested on: SK-OV-3
DMS-114 = tested on: DMS-114
SK-MEL-28 = tested on: SK-MEL-28
HOP-18 = tested on: HOP-18
OVCAR-5 = tested on: OVCAR-5
SR = tested on: SR
M14 = tested on: M14

Compound	GI50 (MCF7)	GI50 (KM-20L2)	GI50 (SW-620)	GI50 (NCI-H23)	GI50 (A549)	GI50 (SK-MEL-5)	GI50 (RPMI-8226)	GI50 (KM12)	GI50 (SNB-19)	GI50 (OVCAR-8)	GI50 (EKVX)	GI50 (SK-OV-3)	GI50 (DMS-114)	GI50 (SK-MEL-28)	GI50 (HOP-18)	GI50 (OVCAR-5)	GI50 (SR)	GI50 (M14)
Cn1c2ccccc2c(=O)c2c(O)cc3c(c21)C=CC(C)(C)O3 [NORACRONYCINE]	> 25 µM (inactive)	> 10.2 µM (inactive)	12.2 µM (inactive)	> 25 µM (inactive)	> 25 µM (inactive)	> 25 µM (inactive)	> 25 µM (inactive)	> 25 µM (inactive)	9.31 µM (inactive)	2.5 µM (inactive)	> 21.1 µM (inactive)	> 25 µM (inactive)	> 25 µM (inactive)	> 25 µM (inactive)	13.7 µM (inactive)	> 25 µM (inactive)	–	–
CCC1CN2CCC1CC2 (stereo not drawn)	> 100 µM (inactive)	> 100 µM (inactive)	> 100 µM (inactive)	> 100 µM (inactive)	> 100 µM (inactive)	> 100 µM (inactive)	> 100 µM (inactive)	> 100 µM (inactive)	> 100 µM (inactive)	> 100 µM (inactive)	> 100 µM (inactive)	> 100 µM (inactive)	> 100 µM (inactive)	> 100 µM (inactive)	> 100 µM (inactive)	> 100 µM (inactive)	–	–
C[C@H]1[C@@H]2C[C@@H]3O[C@@]34[C@H]3CCC5Cc6nc7c(nc6C[C@@]5(C)[C@]3(O)CC(=O)[C@@]24CO[C@]12OC(C)(C)C[C@@H]2O)CC1CC[C@@H]2C3=C[C@H]4O[C@@]5(OC(C)(CO)C[C@@H]5O)[C@H](C)[C@@]4(O)[C@]3(C)[C@@H](O)CC2[C@]1(C)C7 (stereo partly drawn)	0.0345 µM (active)	0.0378 µM (active)	0.0333 µM (active)	0.0414 µM (active)	0.0168 µM (active)	0.0873 µM (active)	0.00139 µM (active)	0.0706 µM (active)	–	3.02 µM (inactive)	0.0573 µM (active)	0.0168 µM (active)	0.0119 µM (active)	–	> 3.52 µM (inactive)	0.0343 µM (active)	–	–
COC(=O)[C@@H]1c2cc3c(c(O)c2[C@@H](OC)C[C@@]1(C)O)C(=O)c1c(O)cc2c(c1C3=O)OC1O[C@@]2(C)[C@H](O)[C@@H](N(C)C)[C@@H]1O	2.72 µM (inactive)	0.175 µM (active)	0.193 µM (active)	0.428 µM (active)	0.435 µM (active)	0.364 µM (active)	0.192 µM (active)	0.379 µM (active)	0.337 µM (active)	0.234 µM (active)	0.345 µM (active)	0.522 µM (active)	0.217 µM (active)	0.667 µM (active)	0.14 µM (active)	0.508 µM (active)	–	–
O=C(O)CCCCCCCCC(=O)O [SEBACIC ACID]	> 377 µM (inactive)	> 50 µM (inactive)	> 500 µM (inactive)	79.3 µM (inactive)	108 µM (inactive)	> 23.2 µM (inactive)	> 500 µM (inactive)	> 500 µM (inactive)	108 µM (inactive)	108 µM (inactive)	50 µM (inactive)	50 µM (inactive)	50 µM (inactive)	> 500 µM (inactive)	387 µM (inactive)	> 500 µM (inactive)	–	–
COc1cc(C(C)c2cc3c(cc2OCCO)OCO3)cc(OC)c1OC (stereo not drawn)	–	1.43 µM (inactive)	0.746 µM (active)	1.91 µM (inactive)	2.32 µM (inactive)	0.667 µM (active)	4.59 µM (inactive)	–	3.93 µM (inactive)	3.27 µM (inactive)	3.79 µM (inactive)	2.19 µM (inactive)	0.562 µM (active)	–	> 100 µM (inactive)	> 100 µM (inactive)	0.299 µM (active)	1.18 µM (inactive)
O=C(Nc1ccc(C2=NCCN2)cc1)c1cncc(C(=O)Nc2ccc(C3=NCCN3)cc2)c1	> 100 µM (inactive)	> 100 µM (inactive)	> 100 µM (inactive)	> 100 µM (inactive)	> 100 µM (inactive)	> 100 µM (inactive)	> 100 µM (inactive)	> 100 µM (inactive)	> 100 µM (inactive)	> 100 µM (inactive)	> 100 µM (inactive)	> 100 µM (inactive)	> 100 µM (inactive)	> 31.6 µM (inactive)	> 100 µM (inactive)	> 100 µM (inactive)	–	–
O=C(O)c1ccc([N+](=O)[O-])c2c(=O)c3ccccc3[nH]c12	–	> 100 µM (inactive)	> 100 µM (inactive)	–	> 100 µM (inactive)	> 100 µM (inactive)	> 100 µM (inactive)	> 100 µM (inactive)	> 100 µM (inactive)	> 100 µM (inactive)	–	> 100 µM (inactive)	> 100 µM (inactive)	–	> 100 µM (inactive)	> 100 µM (inactive)	> 100 µM (inactive)	> 100 µM (inactive)
